ChEMBL document CHEMBL5331094, “Identification of 2,4,5-trisubstituted-2,4-dihydro-3H-1,2,4-triazol-3-one-based small molecules as selective BRD9 binders” (Eur J Med Chem, 2023)

Experiments:
[1] = molecular target: Bromodomain-containing protein 3 (Homo sapiens) (UniProt Q15059); assay: Binding affinity of recombinant His-tagged BRD3-BD2 (unknown origin) to histone H4Ac (1 to 21 residues) K5/8/12/Ac-Biotin-OH assessed as residual binding at 10 uM incubated for 30 mins by alphascreen analysis relative to control
Chain of Bromodomain-containing protein 3 (Homo sapiens) (Q15059 2-726 limits assumed): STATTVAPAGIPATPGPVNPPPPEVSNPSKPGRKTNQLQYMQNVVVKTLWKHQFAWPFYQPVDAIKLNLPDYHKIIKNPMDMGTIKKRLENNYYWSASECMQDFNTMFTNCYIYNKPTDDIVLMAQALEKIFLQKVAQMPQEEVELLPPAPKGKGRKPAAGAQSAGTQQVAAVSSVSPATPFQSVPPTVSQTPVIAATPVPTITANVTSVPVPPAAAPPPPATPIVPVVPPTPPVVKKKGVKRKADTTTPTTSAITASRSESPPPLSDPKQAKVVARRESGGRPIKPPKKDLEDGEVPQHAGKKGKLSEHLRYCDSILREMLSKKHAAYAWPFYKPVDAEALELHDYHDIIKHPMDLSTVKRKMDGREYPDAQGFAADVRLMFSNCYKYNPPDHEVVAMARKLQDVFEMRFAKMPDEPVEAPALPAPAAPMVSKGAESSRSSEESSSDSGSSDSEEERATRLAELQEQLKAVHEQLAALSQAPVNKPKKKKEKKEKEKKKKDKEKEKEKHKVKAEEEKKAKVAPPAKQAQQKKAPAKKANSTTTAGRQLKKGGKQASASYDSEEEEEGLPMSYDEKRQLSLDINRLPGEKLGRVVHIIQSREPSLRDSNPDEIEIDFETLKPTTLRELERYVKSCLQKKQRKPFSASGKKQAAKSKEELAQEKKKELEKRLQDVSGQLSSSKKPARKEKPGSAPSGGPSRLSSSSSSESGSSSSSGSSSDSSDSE

[2] = molecular target: T1, Bromodomain-containing protein 9 (Homo sapiens) (UniProt Q9H8M2); assay: Binding affinity of GST-tagged BRD9 domain (unknown origin) to histone H4Ac (1 to 21 residues) assessed as residual binding at 10 uM by alphascreen analysis relative to control
T1 sequence (whole entry): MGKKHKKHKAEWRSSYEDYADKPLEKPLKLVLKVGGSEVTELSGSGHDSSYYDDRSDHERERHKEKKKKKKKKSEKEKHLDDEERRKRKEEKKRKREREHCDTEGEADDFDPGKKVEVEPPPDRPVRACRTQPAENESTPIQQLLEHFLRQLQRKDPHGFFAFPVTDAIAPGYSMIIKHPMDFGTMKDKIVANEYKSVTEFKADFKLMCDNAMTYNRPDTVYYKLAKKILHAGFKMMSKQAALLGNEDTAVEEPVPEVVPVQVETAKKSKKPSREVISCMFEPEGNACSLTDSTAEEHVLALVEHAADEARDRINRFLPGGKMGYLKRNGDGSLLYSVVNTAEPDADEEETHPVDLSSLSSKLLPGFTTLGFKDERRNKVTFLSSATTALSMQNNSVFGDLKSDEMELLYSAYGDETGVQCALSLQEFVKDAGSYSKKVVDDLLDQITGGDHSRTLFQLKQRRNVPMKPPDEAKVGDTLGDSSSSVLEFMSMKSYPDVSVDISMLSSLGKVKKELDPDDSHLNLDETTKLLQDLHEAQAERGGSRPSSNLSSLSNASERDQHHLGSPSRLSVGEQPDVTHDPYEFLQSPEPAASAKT

[3] = molecular target: Bromodomain testis-specific protein (Homo sapiens) (UniProt Q58F21); assay: Binding affinity of recombinant His-tagged BRDT-BD1 (unknown origin) to histone H4Ac (1 to 21 residues) K5/8/12/Ac-Biotin-OH assessed as residual binding at 10 uM incubated for 30 mins by alphascreen analysis relative to control
[4] = Cytotoxicity against human erythrocytes assessed as cell viability measured after 24 hrs by MTT assay; type: toxicity, cell-based, Erythrocyte
[5] = molecular target: Bromodomain-containing protein 4 (Homo sapiens) (UniProt O60885); assay: Binding affinity of recombinant His-tagged BRD4-BD1 (unknown origin) to histone H4Ac (1 to 21 residues) K5/8/12/Ac-Biotin-OH assessed as residual binding at 10 uM incubated for 30 mins by alphascreen analysis relative to control
Caco-2 = assay: Cytotoxicity against human Caco-2 cells assessed as cell viability measured after 24 hrs by MTT assay; type: functional, cell-based; conditions: Caco-2, 24 h
A-375 = assay: Cytotoxicity against human A-375 cells assessed as cell viability measured after 24 hrs by MTT assay; type: functional, cell-based; conditions: A-375, 24 h
[6] = molecular target: Bromodomain-containing protein 3 (Homo sapiens) (UniProt Q15059); assay: Binding affinity of recombinant His-tagged BRD3-BD1 (unknown origin) to histone H4Ac (1 to 21 residues) K5/8/12/Ac-Biotin-OH assessed as residual binding at 10 uM incubated for 30 mins by alphascreen analysis relative to control
[7] = molecular target: Bromodomain-containing protein 4 (Homo sapiens) (UniProt O60885); assay: Binding affinity of recombinant His-tagged BRD4-BD2 (unknown origin) to histone H4Ac (1 to 21 residues) K5/8/12/Ac-Biotin-OH assessed as residual binding at 10 uM incubated for 30 mins by alphascreen analysis relative to control
Jurkat = assay: Cytotoxicity against human Jurkat cells assessed as cell viability measured after 24 hrs by MTT assay; type: functional, cell-based
MCF7 = assay: Cytotoxicity against human MCF7 cells assessed as cell viability measured after 24 hrs by MTT assay; type: functional, cell-based; conditions: MCF7, 24 h
HaCaT = assay: Cytotoxicity against human HaCaT cells assessed as cell viability measured after 24 hrs by MTT assay; type: functional, cell-based
[8] = molecular target: Bromodomain-containing protein 2 (Homo sapiens) (UniProt P25440); assay: Binding affinity of recombinant His-tagged BRD2-BD2 (unknown origin) to histone H4Ac (1 to 21 residues) K5/8/12/Ac-Biotin-OH assessed as residual binding at 10 uM incubated for 30 mins by alphascreen analysis relative to control
Chain of Bromodomain-containing protein 2 (Homo sapiens) (P25440 whole entry, looked up, the tested form may be a part): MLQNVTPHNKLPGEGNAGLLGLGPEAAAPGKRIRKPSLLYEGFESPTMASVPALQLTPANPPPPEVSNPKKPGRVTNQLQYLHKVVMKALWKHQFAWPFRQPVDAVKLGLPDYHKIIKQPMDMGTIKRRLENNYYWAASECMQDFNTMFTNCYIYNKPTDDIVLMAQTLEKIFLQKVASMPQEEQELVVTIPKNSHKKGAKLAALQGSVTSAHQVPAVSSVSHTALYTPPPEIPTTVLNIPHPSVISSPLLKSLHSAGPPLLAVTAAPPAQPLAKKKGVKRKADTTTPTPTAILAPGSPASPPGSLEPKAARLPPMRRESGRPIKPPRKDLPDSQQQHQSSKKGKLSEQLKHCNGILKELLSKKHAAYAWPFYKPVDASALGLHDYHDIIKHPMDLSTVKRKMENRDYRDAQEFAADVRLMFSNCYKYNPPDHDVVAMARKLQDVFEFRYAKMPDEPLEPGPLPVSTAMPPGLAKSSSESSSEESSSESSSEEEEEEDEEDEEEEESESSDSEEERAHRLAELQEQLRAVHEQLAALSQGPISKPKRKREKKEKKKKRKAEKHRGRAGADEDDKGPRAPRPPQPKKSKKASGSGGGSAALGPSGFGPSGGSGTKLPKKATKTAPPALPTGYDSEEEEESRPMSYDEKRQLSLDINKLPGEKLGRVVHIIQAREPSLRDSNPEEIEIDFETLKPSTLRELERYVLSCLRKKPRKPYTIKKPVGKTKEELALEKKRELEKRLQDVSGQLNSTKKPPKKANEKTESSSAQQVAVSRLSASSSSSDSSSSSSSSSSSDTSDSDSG

[9] = molecular target: Bromodomain-containing protein 2 (Homo sapiens) (UniProt P25440); assay: Binding affinity of recombinant His-tagged BRD2-BD1 (unknown origin) to histone H4Ac (1 to 21 residues) K5/8/12/Ac-Biotin-OH assessed as residual binding at 10 uM incubated for 30 mins by alphascreen analysis relative to control
[10] = molecular target: Bromodomain adjacent to zinc finger domain protein 2B (Homo sapiens) (UniProt Q9UIF8); assay: Binding affinity of recombinant His-tagged BAZ2B (unknown origin) to histone H3 (1 to 21 residues) K9/14Ac-Biotin-OH assessed as residual binding at 10 uM incubated for 30 mins by alphascreen analysis relative to control
Chain of Bromodomain adjacent to zinc finger domain protein 2B (Homo sapiens) (Q9UIF8 whole entry, the tested form may be a part): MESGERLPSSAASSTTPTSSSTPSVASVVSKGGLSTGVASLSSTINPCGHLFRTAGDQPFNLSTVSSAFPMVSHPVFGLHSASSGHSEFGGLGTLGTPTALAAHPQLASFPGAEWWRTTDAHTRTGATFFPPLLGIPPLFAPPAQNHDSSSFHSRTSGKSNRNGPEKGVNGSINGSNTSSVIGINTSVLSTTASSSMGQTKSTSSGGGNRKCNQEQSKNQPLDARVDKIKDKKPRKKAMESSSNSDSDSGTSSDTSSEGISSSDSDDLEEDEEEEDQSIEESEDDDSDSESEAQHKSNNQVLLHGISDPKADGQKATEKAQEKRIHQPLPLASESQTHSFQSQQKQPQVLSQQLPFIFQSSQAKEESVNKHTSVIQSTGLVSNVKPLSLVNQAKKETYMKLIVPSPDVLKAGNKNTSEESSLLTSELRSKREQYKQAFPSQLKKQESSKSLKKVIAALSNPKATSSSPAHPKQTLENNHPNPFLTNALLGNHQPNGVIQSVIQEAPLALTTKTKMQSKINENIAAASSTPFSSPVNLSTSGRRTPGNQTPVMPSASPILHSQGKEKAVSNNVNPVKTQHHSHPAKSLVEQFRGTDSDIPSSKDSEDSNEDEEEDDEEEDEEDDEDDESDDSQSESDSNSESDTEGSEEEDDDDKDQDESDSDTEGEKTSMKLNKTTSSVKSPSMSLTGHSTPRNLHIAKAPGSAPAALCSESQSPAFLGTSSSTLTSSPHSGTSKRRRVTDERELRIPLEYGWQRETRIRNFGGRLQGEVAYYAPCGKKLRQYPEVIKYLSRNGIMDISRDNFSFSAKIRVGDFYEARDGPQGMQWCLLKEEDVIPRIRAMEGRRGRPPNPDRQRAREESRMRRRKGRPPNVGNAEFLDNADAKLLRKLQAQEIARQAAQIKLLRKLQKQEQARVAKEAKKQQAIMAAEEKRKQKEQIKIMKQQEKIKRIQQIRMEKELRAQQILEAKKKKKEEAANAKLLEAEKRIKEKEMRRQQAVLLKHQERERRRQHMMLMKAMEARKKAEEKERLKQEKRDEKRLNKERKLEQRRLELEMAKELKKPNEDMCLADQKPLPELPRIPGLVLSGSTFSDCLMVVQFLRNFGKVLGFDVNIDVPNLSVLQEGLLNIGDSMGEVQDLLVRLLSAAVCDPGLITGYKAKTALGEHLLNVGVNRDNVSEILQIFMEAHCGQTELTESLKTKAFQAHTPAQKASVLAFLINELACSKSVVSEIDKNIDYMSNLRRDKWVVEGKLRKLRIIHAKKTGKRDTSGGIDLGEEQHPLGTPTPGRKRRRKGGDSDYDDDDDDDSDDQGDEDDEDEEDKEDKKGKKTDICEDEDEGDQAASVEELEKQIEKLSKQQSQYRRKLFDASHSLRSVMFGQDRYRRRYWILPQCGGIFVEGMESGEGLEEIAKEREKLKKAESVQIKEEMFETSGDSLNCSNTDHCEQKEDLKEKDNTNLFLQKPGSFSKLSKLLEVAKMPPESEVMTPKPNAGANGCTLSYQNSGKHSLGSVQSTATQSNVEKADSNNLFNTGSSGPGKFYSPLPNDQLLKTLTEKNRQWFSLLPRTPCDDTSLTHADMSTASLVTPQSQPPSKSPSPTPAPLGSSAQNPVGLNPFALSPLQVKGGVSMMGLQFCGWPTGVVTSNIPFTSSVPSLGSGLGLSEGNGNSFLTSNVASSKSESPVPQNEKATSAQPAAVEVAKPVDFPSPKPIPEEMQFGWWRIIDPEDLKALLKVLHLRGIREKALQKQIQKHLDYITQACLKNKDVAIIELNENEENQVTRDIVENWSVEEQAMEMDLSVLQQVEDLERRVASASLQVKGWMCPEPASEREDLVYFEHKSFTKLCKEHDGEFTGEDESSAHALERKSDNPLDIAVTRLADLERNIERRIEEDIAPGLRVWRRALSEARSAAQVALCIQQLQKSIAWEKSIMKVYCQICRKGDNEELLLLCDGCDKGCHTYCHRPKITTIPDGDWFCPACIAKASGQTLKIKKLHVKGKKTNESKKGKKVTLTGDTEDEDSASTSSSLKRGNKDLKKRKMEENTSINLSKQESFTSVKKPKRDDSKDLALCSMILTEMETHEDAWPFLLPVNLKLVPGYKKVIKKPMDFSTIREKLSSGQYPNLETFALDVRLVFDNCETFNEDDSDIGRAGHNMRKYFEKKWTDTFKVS

[11] = molecular target: T2, Bromodomain-containing protein 9 (Homo sapiens, UniProt Q9H8M2); assay: Inhibition of BRD9 (unknown origin) by alpha screen analysis
T2 sequence (Q9H8M2 whole entry): T1 sequence (whole entry)

[12] = molecular target: CREB-binding protein (Homo sapiens) (UniProt Q92793); assay: Binding affinity of recombinant His-tagged CREBBP (unknown origin) to histone H4Ac (1 to 21 residues) K5/8/12/Ac-Biotin-OH assessed as residual binding at 10 uM incubated for 30 mins by alphascreen analysis relative to control

SMILES: CCn1nc(C)n(-c2ccc(F)c(Cl)c2)c1=O
- Activity [1]: 93.3%
- Activity [2]: 41.2%
- Activity [3]: 98.3%
- IC50 at 24 h [4]: > 500 µM
- Activity [5]: 99%
- IC50 (Caco-2): > 500 µM
- IC50 (A-375): 450 µM
- Activity [6]: > 100%
- Activity [7]: > 100%
- IC50 (Jurkat): > 500 µM
- IC50 (MCF7): > 500 µM
- IC50 (HaCaT): > 500 µM
- Activity [8]: > 100%
- Activity [9]: 98.2%
- Activity [10]: > 100%
- IC50 [11]: 4.01 µM
- Activity [12]: > 100%

SMILES: CCc1n[nH]c(=O)n1-c1ccc2c(c1)OCO2
- Activity [2]: 84.6%

SMILES: CCc1nn(CC)c(=O)n1-c1ccc(OC)c(OC)c1
- Activity [2]: > 100%

SMILES: CCn1nc(C)n(-c2ccc3c(c2)OCO3)c1=O
- Activity [1]: 99.9%
- Activity [2]: 35.6%
- Activity [3]: > 100%
- IC50 at 24 h [4]: > 500 µM
- Activity [5]: 96.2%
- IC50 (Caco-2): > 500 µM
- IC50 (A-375): > 500 µM
- Activity [6]: 74.8%
- Activity [7]: 99.2%
- IC50 (Jurkat): > 500 µM
- IC50 (MCF7): > 500 µM
- IC50 (HaCaT): > 500 µM
- Activity [8]: > 100%
- Activity [9]: > 100%
- Activity [10]: 97.5%
- IC50 [11]: 5.44 µM
- Activity [12]: > 100%

SMILES: CCc1n[nH]c(=O)n1-c1ccc(Cl)c(F)c1
- Activity [2]: 91.8%

SMILES: CCc1nn(C)c(=O)n1-c1cccc(C(F)(F)F)c1
- Activity [2]: 76.5%

SMILES: CCc1n[nH]c(=O)n1-c1cccc(C(F)(F)F)c1
- Activity [2]: 96.1%

SMILES: CCc1nn(C)c(=O)n1-c1ccc(F)c(Cl)c1
- Activity [1]: 98.3%
- Activity [2]: 24.3%
- Activity [3]: 98.2%
- IC50 at 24 h [4]: > 500 µM
- Activity [5]: 99.2%
- IC50 (Caco-2): > 500 µM
- IC50 (A-375): 500 µM
- Activity [6]: > 100%
- Activity [7]: > 100%
- IC50 (Jurkat): 225 µM
- IC50 (MCF7): > 500 µM
- IC50 (HaCaT): > 500 µM
- Activity [8]: > 100%
- Activity [9]: > 100%
- Activity [10]: > 100%
- IC50 [11]: 1.86 µM
- Activity [12]: > 100%

SMILES: Cc1nn(C)c(=O)n1-c1ccc2c(c1)OCO2
- Activity [1]: 94.9%
- Activity [2]: 58.8%
- Activity [3]: 92.5%
- IC50 at 24 h [4]: > 500 µM
- Activity [5]: > 100%
- IC50 (Caco-2): 370 µM
- IC50 (A-375): 400 µM
- Activity [6]: 97.3%
- Activity [7]: 99.3%
- IC50 (Jurkat): 290 µM
- IC50 (MCF7): 400 µM
- IC50 (HaCaT): > 500 µM
- Activity [8]: 94.4%
- Activity [9]: > 100%
- Activity [10]: 92.8%
- IC50 [11]: 11.1 µM
- Activity [12]: > 100%

SMILES: CCc1nn(CC)c(=O)n1-c1ccc(F)c(Cl)c1
- Activity [2]: 86.6%

SMILES: CCc1n[nH]c(=O)n1-c1ccc(C)c(C)c1
- Activity [2]: 97.2%

SMILES: Cc1cccc(-n2c(C)nn(C)c2=O)c1
- Activity [2]: 86.7%

SMILES: Cc1n[nH]c(=O)n1-c1ccc(F)c(C(F)(F)F)c1
- Activity [2]: 97.8%

SMILES: CCc1n[nH]c(=O)n1-c1ccc(C)c(Cl)c1
- Activity [2]: 97.5%

SMILES: CCc1nn(CC)c(=O)n1-c1cccc(C(F)(F)F)c1
- Activity [1]: 97.4%
- Activity [2]: 39.4%
- Activity [3]: 98.3%
- IC50 at 24 h [4]: > 500 µM
- Activity [5]: 97.7%
- IC50 (Caco-2): > 500 µM
- IC50 (A-375): > 500 µM
- Activity [6]: > 100%
- Activity [7]: > 100%
- IC50 (Jurkat): 270 µM
- IC50 (MCF7): 490 µM
- IC50 (HaCaT): > 500 µM
- Activity [8]: > 100%
- Activity [9]: 99%
- Activity [10]: > 100%
- IC50 [11]: 2.49 µM
- Activity [12]: > 100%

SMILES: Cc1nn(C)c(=O)n1-c1ccc(F)c(C(F)(F)F)c1
- Activity [2]: 85.3%

SMILES: CCc1nn(C)c(=O)n1C1CCCCC1
- Activity [2]: 64.3%

SMILES: CCc1nn(C)c(=O)n1-c1ccc(C)c(C)c1
- Activity [2]: 85.1%

SMILES: CCc1nn(C)c(=O)n1-c1ccc(OC)c(OC)c1
- Activity [1]: 97.7%
- Activity [2]: 38.1%
- Activity [3]: 95.6%
- IC50 at 24 h [4]: > 500 µM
- Activity [5]: > 100%
- IC50 (Caco-2): > 500 µM
- IC50 (A-375): 480 µM
- Activity [6]: 97.3%
- Activity [7]: 89.4%
- IC50 (Jurkat): 420 µM
- IC50 (MCF7): > 500 µM
- IC50 (HaCaT): > 500 µM
- Activity [8]: 96.7%
- Activity [9]: > 100%
- Activity [10]: > 100%
- IC50 [11]: 4.13 µM
- Activity [12]: > 100%

SMILES: Cc1nn(C)c(=O)n1C1CCCCC1
- Activity [2]: 77.9%

SMILES: Cc1nnc(O)n1-c1ccc(C(C)(C)C)cc1
- Activity [2]: > 100%

SMILES: Cc1cccc(-n2c(C)n[nH]c2=O)c1
- Activity [2]: > 100%

SMILES: CCc1ccc(-n2c(CC)n[nH]c2=O)cc1
- Activity [2]: 97.1%

SMILES: CCn1nc(C)n(-c2ccc(OC)c(OC)c2)c1=O
- Activity [1]: > 100%
- Activity [2]: 50.8%
- Activity [3]: 97.9%
- IC50 at 24 h [4]: > 500 µM
- Activity [5]: 99.2%
- IC50 (Caco-2): 300 µM
- IC50 (A-375): 400 µM
- Activity [6]: 97.8%
- Activity [7]: > 100%
- IC50 (Jurkat): 315 µM
- IC50 (MCF7): 360 µM
- IC50 (HaCaT): > 500 µM
- Activity [8]: > 100%
- Activity [9]: > 100%
- Activity [10]: > 100%
- IC50 [11]: 7.62 µM
- Activity [12]: > 100%

SMILES: CCc1nn(CC)c(=O)n1-c1ccc2c(c1)OCO2
- Activity [2]: 91.2%

SMILES: COc1ccc(-n2c(C)nnc2O)cc1OC
- Activity [2]: 73.6%

SMILES: CCc1n[nH]c(=O)n1-c1ccc(OC)c(OC)c1
- Activity [2]: 96.9%

SMILES: COc1ccc(-n2c(C)nn(C)c2=O)cc1OC
- Activity [1]: > 100%
- Activity [2]: 28.1%
- Activity [3]: > 100%
- IC50 at 24 h [4]: > 500 µM
- Activity [5]: > 100%
- IC50 (Caco-2): 300 µM
- IC50 (A-375): 450 µM
- Activity [6]: > 100%
- Activity [7]: 94.7%
- IC50 (Jurkat): 110 µM
- IC50 (MCF7): > 500 µM
- IC50 (HaCaT): > 500 µM
- Activity [8]: > 100%
- Activity [9]: 96.5%
- Activity [10]: > 100%
- IC50 [11]: 0.35 µM
- Activity [12]: 96.3%

SMILES: Cc1nn(C)c(=O)n1-c1ccc(C(C)(C)C)cc1
- Activity [2]: 95.7%

SMILES: Cc1ccc(-n2c(C)n[nH]c2=O)cc1
- Activity [2]: > 100%

SMILES: Cc1cc(-n2c(C)n[nH]c2=O)ccc1F
- Activity [2]: > 100%

SMILES: CCc1n[nH]c(=O)n1-c1ccc(F)c(C)c1
- Activity [2]: 94.9%
